Experimental data taken from US10730840B2, “Substituted tetrahydroisoquinoline ethylbenzamide anti-cancer agents” (Florida A&M University, priority 2017, dated 2020).

Tests used:
[1] = tested on: MCF-7 (ER positive breast cancer cell line); experiment: CellTiter-Glo antiproliferative activity, MCF-7 cell line; format: cell-based, human; settings: for IC50: Homo sapiens, MCF7, Table 1, read-out: IC50 MCF-7
Text: (§1) Numerous substituted THIQs were systematically synthesized employing molecular design and structure activity relationship studies (Suresh et al., (2014) Lett. Drug Design & Discov. 11: 428-436; Gangapuram et al., (2014) J. Cancer Sci. Ther. 6: 161-169). The compounds' cytotoxic effects on MCF-7 (estrogen receptor positive breast cancer) cell lines, MDA-MB-231 (estrogen receptor negative breast cancer) cell lines and Ishikawa cell lines using CellTiter-Glo (CTG) luminescent cell viability essay were studied. The tests were done on different concentrations of the compounds ranging from 0.01 to 100,000 nM on 5000 MCF-7 cells/well, on 5000 MDA-MB-231 cells/well and on 5000 Ishikawa cells/well. Drug exposed cells were incubated at 37° C. for three days followed by CTG assay. Then IC50 values were generated from Graph Pad Prism 4.
(§2) Chemistry: Several substituted tetrahydroisoquinolines 2d-2m, 3h, 3k, 3l, and 4a-4f were prepared according to three different procedures as shown in Schemes 1, 2 and 3 (FIGS. 2-4). […] The aminating agent 10 was prepared using a reported procedure (Tamura et al., (1972) J. Org. Chem. 40: 4133-4135). The amino salts of ring substituted 2-aminoisoquinolinium mesitylenesulfonates of general structure 11 used in the present study were prepared by the reaction of substituted isoquinolines and the aminating agent 10 as previously reported (Gangapuram et al., (2014) J. Cancer Sci. Ther. 6: 161-169). […] The aminating agent 13 was prepared using a reported procedure (Legault & Charette (2003) J. Org. Chem. 68: 7119-7122). The amino salts of ring substituted 2-aminoisoquinolinium compounds of general structure 14 were obtained with the reaction of the substituted isoquinolines and the aminating agent 13 in CH3CN heated at 50° C. for 24 hours. Without further purification, the salts were used to prepare the N-ylides by reaction with substituted acyl/sulfonyl chlorides. […] N-Oxidation of commercially available ring substituted THIQs followed by the reduction of the NO group using standard zinc/acetic acid led to the synthesis of N-amino THIQs.
(§3) The antiproliferative activities of substituted tetrahydroisoquinolines 2a-2m, 3a-3l and 4a-4f were evaluated according to the procedure reported previously (Crouch et al., (1993) J. Immunol. Methods 160: 81-88).
(§4) Human MCF-7 and MDA-MB-231 breast cancer cell lines were purchased from the NCI. The human Ishikawa endometrial cancer cell line was purchased from Sigma Aldrich. All three cell lines were cultured in phenol red-free RPMI-1640 (Hyclone) (500 mL) supplemented with L-glutamine-dipeptide (Hyclone) (5 mL), and 10% fetal bovine serum (Atlanta Biologicals) (50 mL).
(§5) The cell lines were cultured and treated with compounds under study including the standard TAM ranging from 0.01 nM to 100,000 nM concentration in the presence of 10 nM estradiol using the previous reported method (Suresh et al., (2014) Lett. Drug Des. Discov. 11: 428-436).
(§6) The amount of ATP is determined using a system based on luciferase and D-luciferin resulting in light generation.

[2] = tested on: MCF-7, MDA-MB-231, and Ishikawa cell lines; experiment: Antiproliferative activity, summary statements over the three cell lines; format: cell-based, human; settings: MCF-7, MDA-MB-231 and Ishikawa cell lines together
Text: as §1, §2, §3, §4, §5

[3] = tested on: MDA-MB-231 (ER negative breast carcinoma cell line); experiment: CellTiter-Glo antiproliferative activity, MDA-MB-231 cell line; format: cell-based, human; settings: 72 h exposure, in the presence of 10 nM estradiol; for IC50: Homo sapiens, MDA-MB-231, Table 1
Text: as §1, §2, §3, §4, §5

[4] = tested on: Ishikawa (endometrial) cancer cell line; experiment: CellTiter-Glo antiproliferative activity, Ishikawa cell line; format: cell-based, human; settings: 72 h exposure, in the presence of 10 nM estradiol; for IC50: Homo sapiens, Ishikawa, Table 1, read-out: IC50 Ishikawa
Text: as §1, with “4. […]” for “4.”
as §3, §4, §5, §6

microtubule network = settings: Gangapuram et al. (2014); cited from earlier work
[5] = 72 h exposure, in the presence of 10 nM estradiol

COc1ccc(S(=O)(=O)NN2CCc3c(cccc3OS(=O)(=O)c3ccc(OC)cc3)C2)cc1 [Compound 3l, 2-(4-Methoxyphenylsulfonamido)-1,2,3,4-tetrahydroisoquinolin-5-yl-4-methoxybenzene-sulfonate]
IC50 [1, 5]: > 50.5 µg/mL | antiproliferative activity in words [2]: completely inactive | IC50 [3]: > 50.5 µg/mL | IC50 [4]: > 50.5 µg/mL | melting point: 182 to 183 °C

CCc1ccc(C(=O)NN2CCc3cc(OC(=O)c4ccc(CC)cc4)ccc3C2C(=O)OC)cc1 (stereo not drawn) [Compound 4f, Methyl-2-(4-ethylbenzamido)-6-((4-ethylbenzoyl)oxy)-1,2,3,4-tetrahydroisoquinoline-1-carboxylate]
IC50 [1, 5]: > 48.6 µg/mL | antiproliferative activity in words [2]: completely inactive | IC50 [3]: > 48.6 µg/mL | IC50 [4]: 45.6 µg/mL | melting point: 150 to 152 °C

CCc1ccc(C(=O)NN2CCc3cc(OC)c(OC)cc3C2C(C)C)cc1 (stereo not drawn) [Compound 4c, 4-Ethyl-N-(1-isopropyl-6,7-dimethoxy-3,4-dihydroisoquinolin-2(1H)-yl)benzamide]
IC50 [1, 5]: > 38.2 µg/mL | antiproliferative activity in words [2]: completely inactive | IC50 [3]: > 38.2 µg/mL | IC50 [4]: 15 µg/mL | melting point: 162 to 163 °C

CCc1ccc(C(=O)Nc2cccc3c2CN(NC(=O)c2ccc(CC)cc2)CC3)cc1 [Compound 2j, N,N′-(3,4-dihydroisoquinoline-2,8(1H)-diyl)bis(4-ethylbenzamide)]
IC50 [1, 5]: 9.35 µg/mL | antiproliferative activity in words [2]: less active | IC50 [3]: 9.71 µg/mL | IC50 [4]: 2.74 µg/mL | melting point: 113.2 to 116.4 °C

CCc1ccc(C(=O)Nc2cccc3c2CCN(NC(=O)c2ccc(CC)cc2)C3)cc1 [Compound 3c, N,N′-(3,4-Dihydroisoquinoline-2, 5(1H)-diyl)bis(4-ethylbenzamide)]
IC50 [1, 5]: 4.59 µg/mL | antiproliferative activity in words [2]: less active | IC50 [3]: 6.1 µg/mL | IC50 [4]: 9.45 µg/mL | melting point: 216 to 218 °C

CCc1ccc(C(=O)NN2CCc3c(cccc3NC(C)=O)C2)cc1 [Compound 3d, N-(5-Acetamido-3,4-dihydroisoquinolin-2(1H)-yl)-4-ethylbenzamide]
IC50 [1, 5]: > 33.7 µg/mL | antiproliferative activity in words [2]: completely inactive | IC50 [3]: > 33.7 µg/mL | IC50 [4]: > 33.7 µg/mL | melting point: 295 to 297 °C

CCc1ccc(C(=O)NN2CCc3ccc(O)cc3C2)cc1 [Compound 2b]
IC50 against MCF-7 cell line [1, 5]: 0.2 µg/mL | antiproliferative activity against MCF-7 cell line in words ([1]; based on IC50 value): very active | antiproliferative activity in words [2]: more active than the lead structure (1) | IC50 against MDA-MB-231 cell line [3]: 0.13 µg/mL | IC50 against Ishikawa cell line [4]: 0.08 µg/mL | microtubule-destabilizing activity (microtubule network): potent microtubule-destabilizing agent
